Laboratory results: patent US20070232567A1, “Formulations Of Low Dose Non-Steroidal Anti-Inflammatory Drugs And Beta-Cyclodextrin” (priority 2006, published 2007)

Tested on: patients with moderate-to-severe post-surgical (dental) pain
Assay: Randomized, double-blind, single-dose, placebo- and comparator-controlled study of pain relief by administered dose
Assay type: in vivo, human
Experimental: A 336-patient, seven treatment arm, randomized, double-blind, single-dose, and placebo- and comparator-controlled, parallel-group study was conducted. Patients were randomly assigned to receive a single dose of either diclofenac sodium solubilized with hydroxypropyl-beta-cyclodextrin (hereinafter “DIC”), ketorolac tromethamine, or placebo.
Bolus IV injectable 2 ml solutions were prepared by solubilizing diclofenac sodium with hydroxypropyl-beta-cyclodextrin. The formulation strengths were as follows: • Formulation: Diclofenac sodium solubilized with hydroxypropyl-β-cyclodextrin • Strengths: 75 mg, 37.5 mg, 18.75 mg, 9.4 mg and 3.75 mg • Dosage: Bolus IV injection (no less than 15 sec) • Batch Number: 063004 (PPS4010) • Manufacturer: Manufactured for Javelin by Precision Pharma • Storage Conditions: Room temperature
Active Control/Comparator: • Formulation: Ketorolac Tromethamine • Strength: 30 mg • Dosage: Bolus IV injection (no less than 15 sec) • Batch Number: 21-430-DK • Manufacturer: Abbott Labs • Storage Conditions: Room temperature
Pain was assessed by each patient at Baseline (0 hour: Visual Analog Scale (VAS) and categorical pain intensity only), at 5, 15, 30 and 45 minutes, and at 1, 1.5, 2, 3, 4, 5, 6, 7, 8, 10, 12 and 24 hours after administration of study medication and immediately prior to the first dose of rescue medication. At each post-dose time period, levels of pain intensity (categorical and VAS) and pain relief (categorical and VAS) was assessed by each patient. […]
The presence of a dose-response was tested with a step-down testing procedure. Total pain relief (TOTPAR), peak pain relief, pain intensity difference (SPID), summed peak reduction in pain intensity difference (SPRID), and patient global evaluation was analyzed with analysis of variance (ANOVA) with treatment, center, and baseline categorical pain intensity as factors. […] Time to onset of perceptible relief and time to onset of meaningful relief was analyzed with survival analysis techniques. […] A 95% confidence interval for each estimated median time to event was calculated. […]

SMILES: O=C(c1ccccc1)c1ccc2n1CCC2C(=O)O (stereo not drawn) [ketorolac, ketorolac tromethamine]
- % Maximum Effect (TOTPAR) (30 mg single bolus IV injection (active comparator)): 100%
- TOTPAR (Sum of Pain Relief VAS 0–100 mm ratings 0–6 hours) (30 mg single bolus IV injection (active comparator), value (SEM)): 400.3 (SEM 36)
- peak analgesic response compared with that of diclofenac (about 80% pain relief) (30 milligrams): Similar
